Patent US10508120B2, “TYK2 inhibitors and uses thereof” (Nimbus Lakshmi, Inc., priority 2017, dated 2019)

Assays:
Tyk2 kinase domain (DH1) = Tyk2 kinase domain (DH1) (Homo sapiens (Human), UniProt P29597); assay: Tyk2 Radioactive Kinase Assay; assay type: biochemical; settings: compound at 10 μM; ATP 10 μM; read-out: Tyk2 JH1% Inhibition @ 10 μM
Summary of the method: (§1)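 Compounds were tested at a single concentration of 10 μM in a radiometric kinase format against each isolated kinase domain. Activity is reported as percent inhibition at that concentration.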

JAK2 kinase domain (JH1) = JAK2 kinase domain (JH1) (Homo sapiens (Human), UniProt O60674); assay: JAK2 Radioactive Kinase Assay; assay type: biochemical; settings: compound at 10 μM; ATP 10 μM; read-out: JAK2 JH1% Inhibition @ 10 μM
JAK2 kinase domain (JH1), sequence (O60674 849-1124): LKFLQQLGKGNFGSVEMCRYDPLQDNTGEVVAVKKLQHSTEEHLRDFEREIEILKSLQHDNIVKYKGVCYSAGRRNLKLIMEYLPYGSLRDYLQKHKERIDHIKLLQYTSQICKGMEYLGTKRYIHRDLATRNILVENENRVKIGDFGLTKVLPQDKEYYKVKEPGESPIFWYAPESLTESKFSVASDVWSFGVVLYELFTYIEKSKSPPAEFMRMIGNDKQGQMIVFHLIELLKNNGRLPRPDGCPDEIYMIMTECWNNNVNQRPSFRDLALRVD
Summary of the method: as §1

[1] = target: JAK2/JAK2 homdimeric complex (Homo sapiens (Human), UniProt O60674); assay: GM-CSF Induced pSTAT5 in Human PBMC; assay type: cell-based; settings: GM-CSF 5 ng/mL for 20 minutes, pSTAT5 by MSD, read-out: PBMC_GMCSF_pSTAT5 IC50
JAK2/JAK2 homdimeric complex, sequence (O60674 whole entry, the tested form may be a part): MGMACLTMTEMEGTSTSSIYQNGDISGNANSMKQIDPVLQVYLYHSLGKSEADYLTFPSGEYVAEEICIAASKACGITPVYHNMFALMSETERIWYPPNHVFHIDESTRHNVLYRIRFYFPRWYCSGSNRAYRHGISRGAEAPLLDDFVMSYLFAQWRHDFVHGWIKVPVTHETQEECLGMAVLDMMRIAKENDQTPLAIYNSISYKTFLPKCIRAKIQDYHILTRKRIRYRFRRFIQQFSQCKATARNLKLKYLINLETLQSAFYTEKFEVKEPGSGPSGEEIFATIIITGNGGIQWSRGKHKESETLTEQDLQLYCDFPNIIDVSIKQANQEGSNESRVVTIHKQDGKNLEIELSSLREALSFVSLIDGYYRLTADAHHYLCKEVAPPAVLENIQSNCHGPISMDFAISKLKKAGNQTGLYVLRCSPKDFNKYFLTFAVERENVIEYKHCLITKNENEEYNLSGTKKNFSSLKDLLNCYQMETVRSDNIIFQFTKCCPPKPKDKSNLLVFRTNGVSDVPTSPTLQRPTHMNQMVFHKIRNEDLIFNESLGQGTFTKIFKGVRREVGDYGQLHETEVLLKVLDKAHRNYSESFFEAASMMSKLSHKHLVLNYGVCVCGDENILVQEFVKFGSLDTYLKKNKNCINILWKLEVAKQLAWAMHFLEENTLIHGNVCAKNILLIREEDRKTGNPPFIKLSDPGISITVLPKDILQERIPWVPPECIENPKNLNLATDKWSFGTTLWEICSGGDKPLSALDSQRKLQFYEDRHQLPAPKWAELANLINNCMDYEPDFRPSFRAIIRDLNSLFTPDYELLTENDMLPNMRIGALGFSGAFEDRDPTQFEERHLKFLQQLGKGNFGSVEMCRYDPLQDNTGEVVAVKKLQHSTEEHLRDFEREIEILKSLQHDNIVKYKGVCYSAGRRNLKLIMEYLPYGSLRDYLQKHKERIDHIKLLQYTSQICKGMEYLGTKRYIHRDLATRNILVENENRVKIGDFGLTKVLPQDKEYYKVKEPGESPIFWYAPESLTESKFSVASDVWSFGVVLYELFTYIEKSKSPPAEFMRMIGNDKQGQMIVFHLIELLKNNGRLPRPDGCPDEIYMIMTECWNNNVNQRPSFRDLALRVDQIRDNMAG
JAK2/JAK2 homdimeric complex, sequence (P32927 17-897 partner): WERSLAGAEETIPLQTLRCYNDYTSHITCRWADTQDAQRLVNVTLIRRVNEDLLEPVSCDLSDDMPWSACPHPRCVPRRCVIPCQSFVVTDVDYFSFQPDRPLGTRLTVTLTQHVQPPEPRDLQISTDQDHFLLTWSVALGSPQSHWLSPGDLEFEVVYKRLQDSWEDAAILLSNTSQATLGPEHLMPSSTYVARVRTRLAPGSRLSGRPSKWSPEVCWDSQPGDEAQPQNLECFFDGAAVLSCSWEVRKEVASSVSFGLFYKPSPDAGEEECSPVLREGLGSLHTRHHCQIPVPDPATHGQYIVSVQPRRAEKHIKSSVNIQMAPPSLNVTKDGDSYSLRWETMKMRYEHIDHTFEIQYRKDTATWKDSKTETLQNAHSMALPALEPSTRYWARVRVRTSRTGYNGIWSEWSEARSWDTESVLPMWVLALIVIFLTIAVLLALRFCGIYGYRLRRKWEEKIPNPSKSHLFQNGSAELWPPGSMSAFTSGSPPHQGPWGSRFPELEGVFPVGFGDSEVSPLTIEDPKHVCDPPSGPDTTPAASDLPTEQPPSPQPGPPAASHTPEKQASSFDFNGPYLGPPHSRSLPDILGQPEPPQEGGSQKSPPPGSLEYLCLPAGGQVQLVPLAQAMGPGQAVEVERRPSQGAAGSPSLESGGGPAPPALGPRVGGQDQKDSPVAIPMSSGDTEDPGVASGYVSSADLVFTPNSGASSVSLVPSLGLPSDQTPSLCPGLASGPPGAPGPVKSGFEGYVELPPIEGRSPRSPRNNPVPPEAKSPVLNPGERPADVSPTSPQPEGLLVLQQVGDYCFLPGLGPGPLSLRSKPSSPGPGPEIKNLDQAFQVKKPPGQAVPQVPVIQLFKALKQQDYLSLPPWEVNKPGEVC

[2] = target: human TYK2 (JH2domain-pseudokinase) (Homo sapiens (Human), UniProt P29597); assay: TYK2 JH2 Domain Binding Assay (KINOMEscan)
human TYK2 (JH2domain-pseudokinase), sequence (P29597 556-888): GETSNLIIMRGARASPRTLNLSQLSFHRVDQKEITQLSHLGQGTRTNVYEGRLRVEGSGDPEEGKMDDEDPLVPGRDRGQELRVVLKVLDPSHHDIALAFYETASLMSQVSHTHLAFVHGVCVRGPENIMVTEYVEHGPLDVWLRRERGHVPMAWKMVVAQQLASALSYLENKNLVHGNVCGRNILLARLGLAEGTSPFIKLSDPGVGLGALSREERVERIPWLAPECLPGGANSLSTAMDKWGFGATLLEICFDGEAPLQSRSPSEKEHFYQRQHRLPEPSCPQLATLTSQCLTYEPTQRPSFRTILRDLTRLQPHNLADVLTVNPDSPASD
Summary of the method: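 Kds, run in duplicate, came from Hill fits (slope fixed at −1) of an 11-point 3-fold dilution series starting at 30,000 nM. Bead-retained TYK2 JH2 (aa G556–D888)–NFkB DBD fusion, DNA-tagged and expressed in HEK293 cells, was read by qPCR after 1 h room-temperature binding in 0.9% DMSO.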

[3] = target: Tyk2/JAK2 (heterodimeric complex) (Homo sapiens (Human), UniProt P29597); assay: IL-12 Induced pSTAT4 in Human PBMC; assay type: cell-based; settings: 1.7 ng/mL IL-12
Tyk2/JAK2 (heterodimeric complex), sequence (P29597 whole entry, other chains not shown): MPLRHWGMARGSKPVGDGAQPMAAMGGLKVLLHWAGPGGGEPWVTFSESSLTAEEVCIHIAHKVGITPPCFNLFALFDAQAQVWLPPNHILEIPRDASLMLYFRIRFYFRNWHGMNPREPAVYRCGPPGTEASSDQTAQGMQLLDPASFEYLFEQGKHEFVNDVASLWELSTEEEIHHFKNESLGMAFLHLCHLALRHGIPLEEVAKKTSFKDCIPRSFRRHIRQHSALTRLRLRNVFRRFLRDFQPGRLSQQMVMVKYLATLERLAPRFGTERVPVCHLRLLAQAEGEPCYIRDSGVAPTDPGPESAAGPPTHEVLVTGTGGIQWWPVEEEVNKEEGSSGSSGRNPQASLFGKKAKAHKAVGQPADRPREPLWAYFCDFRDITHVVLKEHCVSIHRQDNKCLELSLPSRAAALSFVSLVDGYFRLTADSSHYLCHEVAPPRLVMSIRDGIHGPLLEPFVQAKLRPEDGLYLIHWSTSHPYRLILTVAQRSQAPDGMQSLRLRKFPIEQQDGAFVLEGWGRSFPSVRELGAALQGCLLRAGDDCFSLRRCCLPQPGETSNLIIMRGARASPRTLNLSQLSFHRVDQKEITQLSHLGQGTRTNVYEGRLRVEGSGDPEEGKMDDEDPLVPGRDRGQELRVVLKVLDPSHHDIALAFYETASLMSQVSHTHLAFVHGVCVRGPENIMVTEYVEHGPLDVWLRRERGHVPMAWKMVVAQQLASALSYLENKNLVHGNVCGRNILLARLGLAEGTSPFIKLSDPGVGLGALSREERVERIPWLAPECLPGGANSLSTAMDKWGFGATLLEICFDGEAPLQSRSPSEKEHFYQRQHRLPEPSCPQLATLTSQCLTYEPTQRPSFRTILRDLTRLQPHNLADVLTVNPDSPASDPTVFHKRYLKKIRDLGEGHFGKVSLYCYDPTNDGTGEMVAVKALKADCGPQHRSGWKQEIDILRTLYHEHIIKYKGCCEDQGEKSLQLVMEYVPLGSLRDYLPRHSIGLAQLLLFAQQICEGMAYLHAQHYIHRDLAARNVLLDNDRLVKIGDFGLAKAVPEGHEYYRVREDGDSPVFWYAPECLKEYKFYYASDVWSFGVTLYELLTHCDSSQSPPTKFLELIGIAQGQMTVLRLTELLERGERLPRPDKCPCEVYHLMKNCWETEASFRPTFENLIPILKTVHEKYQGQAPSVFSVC
From the text: The IL-12 Induced pSTAT4 assay evaluates the inhibition of IL-12 induced STAT4 phophorylation mediated by Tyk2/JAK2 (heterodimeric complex).

Tyk2 kinase domain (DH1), sequence (P29597 897-1176): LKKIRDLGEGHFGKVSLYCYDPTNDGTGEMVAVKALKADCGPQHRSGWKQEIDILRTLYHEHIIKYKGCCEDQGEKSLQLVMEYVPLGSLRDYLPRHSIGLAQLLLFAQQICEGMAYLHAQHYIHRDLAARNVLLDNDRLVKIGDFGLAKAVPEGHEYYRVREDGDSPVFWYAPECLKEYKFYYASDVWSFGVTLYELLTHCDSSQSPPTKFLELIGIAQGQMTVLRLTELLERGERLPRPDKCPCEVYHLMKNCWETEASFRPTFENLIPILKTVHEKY

CNc1cc(Nc2cccn([C@H]3CC[C@H](OC)CC3)c2=O)nc2c(C(=O)N[C@H]3CC[C@@H]3O)cnn12 [I-540] was tested, and the inhibition at 10 µM (Tyk2 kinase domain (DH1)) was under 50%, the inhibition at 10 µM (JAK2 kinase domain (JH1)) was under 50% and the IC50 [1] was over 12500 nM. The Kd [2] was under 0.2 nM and the IC50 [3] was under 100 nM.

CNc1cc(Nc2cccn([C@H]3CC[C@H](OC)CC3)c2=O)nc2c(C(=O)NCC(C)(C)CO)cnn12 [I-544] gave an inhibition at 10 µM (Tyk2 kinase domain (DH1)) of under 50%, an inhibition at 10 µM (JAK2 kinase domain (JH1)) of under 50% and an IC50 [1] of over 2500 nM. The Kd [2] was under 0.2 nM and the IC50 [3] was under 100 nM.

With CNc1cc(Nc2cccn([C@H]3CC[C@H](OC)CC3)c2=O)nc2c(C(=O)NCC3(CO)CC3)cnn12 [I-545] the inhibition at 10 µM (Tyk2 kinase domain (DH1)) was under 50%, the inhibition at 10 µM (JAK2 kinase domain (JH1)) was under 50% and the IC50 [1] was over 2500 nM. It also gave a Kd [2] of under 0.2 nM and an IC50 [3] of 100 to 500 nM.

CNc1cc(Nc2cccnc2OC2CC2)nc2c(C(=O)N[C@H]3COC[C@H]3O)cnn12 [I-547] gave an inhibition at 10 µM (Tyk2 kinase domain (DH1)) of under 50%, an inhibition at 10 µM (JAK2 kinase domain (JH1)) of under 50% and an IC50 [1] of over 50000 nM. It also gave a Kd [2] of under 0.2 nM and an IC50 [3] of 100 to 500 nM.

For CNc1cc(Nc2cccn(C3CC4(COC4)C3)c2=O)nc2c(C(=O)N[C@@H]3C[C@@H]3F)cnn12 [I-551, N-((1R,2S)-2-fluorocyclopropyl)-7-(methylamino)-5-((2-oxo-1-(2-oxaspiro[3.3]heptan-6-yl)-1,2-dihydropyridin-3-yl)amino)pyrazolo[1,5-a]pyrimidine-3-carboxamide], the inhibition at 10 µM (Tyk2 kinase domain (DH1)) was under 50%, the inhibition at 10 µM (JAK2 kinase domain (JH1)) was under 50% and the IC50 [1] was over 2500 nM. It also gave a Kd [2] of under 0.2 nM and an IC50 [3] of under 100 nM.

With CNc1cc(Nc2cc(F)cn([C@H]3CCCOC3)c2=O)nc2c(C(=O)N[C@H]3C[C@H]3F)cnn12 [I-559] the inhibition at 10 µM (Tyk2 kinase domain (DH1)) was under 50%, the inhibition at 10 µM (JAK2 kinase domain (JH1)) was under 50% and the IC50 [1] was over 50000 nM. The Kd [2] was under 0.2 nM and the IC50 [3] was under 100 nM.

In the case of CNc1cc(Nc2cccn([C@H]3CC[C@H](OC)CC3)c2=O)nc2c(C(=O)N[C@@H]3CC[C@@H]3O)cnn12 [I-560], the inhibition at 10 µM (Tyk2 kinase domain (DH1)) is reported as under 50%, the inhibition at 10 µM (JAK2 kinase domain (JH1)) is reported as under 50% and the IC50 [1] is reported as over 2500 nM. For the same compound, the Kd [2] was under 0.2 nM and the IC50 [3] was under 100 nM.

With CNc1cc(Nc2cccc([C@@H]3CCCOC3)n2)nc2c(C(=O)N[C@H]3C[C@H]3F)cnn12 [I-562] the inhibition at 10 µM (Tyk2 kinase domain (DH1)) was under 50%, the inhibition at 10 µM (JAK2 kinase domain (JH1)) was 50 to 70% and the IC50 [1] was over 50000 nM. The Kd [2] was under 0.2 nM and the IC50 [3] was under 100 nM.

CNc1cc(Nc2cccc([C@H]3CCCOC3)n2)nc2c(C(=O)N[C@H]3C[C@H]3F)cnn12 [I-563] gave an inhibition at 10 µM (Tyk2 kinase domain (DH1)) of under 50%, an inhibition at 10 µM (JAK2 kinase domain (JH1)) of under 50% and an IC50 [1] of over 50000 nM. It also gave a Kd [2] of under 0.2 nM and an IC50 [3] of under 100 nM.

For CNc1cc(Nc2cccn(C3CCN(CCF)CC3)c2=O)nc2c(C(=O)N[C@H]3C[C@H]3F)cnn12 [I-570], the inhibition at 10 µM (Tyk2 kinase domain (DH1)) was under 50%, the inhibition at 10 µM (JAK2 kinase domain (JH1)) was under 50% and the IC50 [1] was over 50000 nM. For the same compound, the Kd [2] was under 0.2 nM and the IC50 [3] was under 100 nM.

For CNc1cc(-c2cn(C(C)C)c3ncccc23)nc2c(C(=O)N[C@@H]3CC[C@@H]3O)cnn12 [I-578], the inhibition at 10 µM (Tyk2 kinase domain (DH1)) was under 50%, the inhibition at 10 µM (JAK2 kinase domain (JH1)) was under 50% and the IC50 [1] was over 50000 nM. It also gave a Kd [2] of under 0.2 nM and an IC50 [3] of under 100 nM.

Compound CNc1cc(-c2cn(CCN3CCCCC3)c3ncccc23)nc2c(C(=O)N[C@H]3C[C@H]3F)cnn12 [I-585] has an inhibition at 10 µM (Tyk2 kinase domain (DH1)) of under 50%, an inhibition at 10 µM (JAK2 kinase domain (JH1)) of under 50% and an IC50 [1] of over 12500 nM. The Kd [2] was under 0.2 nM and the IC50 [3] was under 100 nM.

Compound CNc1cc(-c2cn(C(C)C)c3ncccc23)nc2c(C(=O)N[C@H]3CC[C@@H]3O)cnn12 [I-586, N-((1R,2R)-2-hydroycyclobutyl)-5-(1-isopropyl-1H-pyrrolo[2,3-b]pyridin-3-yl)-7-(methylamino)pyrazolo[1,5-a]pyrimidine-3-carboxamide] has an inhibition at 10 µM (Tyk2 kinase domain (DH1)) of under 50%, an inhibition at 10 µM (JAK2 kinase domain (JH1)) of under 50% and an IC50 [1] of over 50000 nM. For the same compound, the Kd [2] was under 0.2 nM and the IC50 [3] was under 100 nM.

For CNc1cc(Nc2cccc(N3CCOCC3)n2)nc2c(C(=O)N[C@H]3C[C@H]3F)cnn12 [I-590], the inhibition at 10 µM (Tyk2 kinase domain (DH1)) was under 50%, the inhibition at 10 µM (JAK2 kinase domain (JH1)) was 50 to 70% and the IC50 [1] was over 12500 nM. For the same compound, the Kd [2] was under 0.2 nM and the IC50 [3] was under 100 nM.

CNc1cc(Nc2cccc3ocnc23)nc2c(C(=O)NC3CC3)cnn12 [I-591] showed an inhibition at 10 µM (Tyk2 kinase domain (DH1)) of under 50%, an inhibition at 10 µM (JAK2 kinase domain (JH1)) of under 50% and an IC50 [1] of over 12500 nM. The Kd [2] was under 0.2 nM and the IC50 [3] was under 100 nM.

CNc1cc(Nc2cccc3ocnc23)nc2c(C(=O)N[C@H]3C[C@H]3F)cnn12 [I-592] gave an inhibition at 10 µM (Tyk2 kinase domain (DH1)) of under 50%, an inhibition at 10 µM (JAK2 kinase domain (JH1)) of under 50% and an IC50 [1] of over 12500 nM. For the same compound, the Kd [2] was under 0.2 nM and the IC50 [3] was under 100 nM.
